Reference: PubChem BioAssay AID179 (DTP/NCI, 2004)
Calls of active or inactive are those of the source.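 Rule for the calls: active = compounds giving half or more protection of infected cells from virus-caused growth loss, again on retest; inactive = the rest.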 Where a SMILES comes first, the peptide text is derived from it.

Test system: CEM cells HIV-1 protection, formazan growth assay
Assay: NCI AIDS Antiviral Assay
Conditions: for IC50: measured here: growth of uninfected CEM cells
Summary of the method: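 Protection of CEM cells against HIV-1 measured as cell growth via soluble formazan read-out, with five concentrations tested on both infected and uninfected cells; failure to protect may reflect toxicity.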

Structure (SMILES)	EC50 [µM]	IC50 [µM]	outcome
CCOc1ccc(Nc2nc(C)c(C(=O)CC(=O)C(=O)Nc3ccc(Cl)c(C(F)(F)F)c3)s2)cc1	> 200	> 200	
O=C1CCCCC/C=C2/CC[C@H](Sc3ccccc3)[C@@H]12	> 200	53.7	
N#CNC1=NCCC(=O)N1CCc1c[nH]c2ccccc12	70.8	> 200	
Oc1cccc2cccnc12	> 1230	2.34	inactive
COC(=O)c1cc2c(o1)Sc1ccccc1NC2=O	> 200	> 200	
CC(NC(=O)CNC(=O)C(N)CO)C(=O)NC(CCC(N)=O)C(=O)NC(CCCCN)C(=O)N1CCCC1C(=O)NC(CCC(=O)O)C(=O)NC(CCC(=O)O)C(=O)NC(CCC(=O)O)C(=O)NC(CO)C(=O)NC(CO)C(=O)NC(CC(N)=O)C(=O)NC(C)C(=O)NC(Cc1cnc[nH]1)C(=O)NC(CO)C(=O)O (stereo unspecified) (H-SGAQKPEEESSNAHS-OH; configuration not given here)	> 100	> 100	
NC(=O)CN(CC(N)=O)C(N)=O	> 724	> 724	
CN1C(=O)C(c2c[nH]c3ccccc23)N(C)C(=O)C1c1c[nH]c2ccccc12 (stereo unspecified)	> 200	> 200	
CCOC(=O)C/C(N)=C(\C#N)C(=O)OCC			inactive
C/C=C/[C@@H]1[C@H]2C(=O)[C@]3(Cl)[C@@H](/C=C/C)[C@@H]3C(=O)[C@@]12Cl			inactive
O=c1[nH]c(Nc2nc3ccccc3[nH]2)nc(O)c1-c1ccccc1	162	> 200	
CC(=S)N=Cc1c(O)[nH]c(=O)[nH]c1=O	> 200	> 200	
CC(=Nc1ccccc1C(=O)[O-])c1c([O-])ccc2c(C)cc(=O)oc12.[Cu+2].[OH3+]	> 1.32	> 1.32	
COc1c(Cl)nc2ccccc2c1N=[N+]=[N-]	> 200	135	
O=S1Nc2c(Cl)cc(Cl)c3c(Cl)cc(Cl)c(c23)N1			inactive
CNC(=O)CCCNC(=O)CCCC(=O)N(C)C	> 200	> 200	
COC[C@@H](N=CN1CCc2cc(OC)ccc2C1)C(C)C	> 871	> 871	
CC1C(c2ccc3c(c2)OCO3)c2cc3c(cc2OC1N1CCCCC1)OCO3 (stereo unspecified)	> 200	33.9	
CCSc1n/c(=C\c2ccco2)c2nncn12	> 100	> 100	
CC1(O)CC(=O)c2c(cc3ccc(-c4c5c(c(O)c6c(O)cccc46)C(=O)CC(C)(O)C5)c(O)c3c2O)C1 (stereo unspecified)	> 200	0.389	
COc1cccc(/C=N/[N-]C(N)=O)c1[O-].[Ni+2].[OH3+].c1cnc2c(c1)ccc1cccnc12			inactive
O=c1[nH]c(O)c(/C=N/C(=S)Nc2ccccc2)c(=O)[nH]1			inactive
O=C(NCC(C(=O)OCc1ccccc1)C(=O)OCc1ccccc1)OCc1ccccc1	> 200	63.1	

Structure (SMILES)	EC50 [µM]	IC50 [µM]	outcome
Cc1ccccc1SSCCN			inactive
Cc1ccc(NC(=O)CCC(=O)C2Cc3ccccc3C2=O)cc1C (stereo unspecified)	> 741	724	
Cc1ccccc1N1OS(=O)(=O)CC1(C#N)c1ccccc1 (stereo unspecified)	> 83.2	> 83.2	
CC(=O)NC(N)=NC#N	> 2000	> 2000	
NN1C(=O)CSC1=S	> 912	295	
O=C1C2C=CC(n3[nH]c(=O)n(Cc4ccccc4)c3=O)CC2C(=O)N1c1ccc(Br)cc1 (stereo unspecified)	> 501	135	
COc1ccc(OC)c(CNc2ccc(C(=O)O)cc2)c1	> 200	> 200	
COc1cc(\C=N/N=C/C=C/c2ccccc2)cc(OC)c1OC			inactive
O=C(CC1C(=O)Nc2ccccc2S1=O)Nc1ccccc1 (stereo unspecified)	> 22.9	> 22.9	
Cn1c(=O)nc2n(-c3ccc(F)cc3)c3ccccc3nc-2c1=O			inactive
COC(=O)Cc1ccc2c(cnn2-c2ccccc2)c1OC	> 200	89.1	
COc1ccc(N(C)S(=O)(=O)c2ccccc2)cc1	> 200	123	
Oc1ccc(-c2nn3c(CCCCCCCCc4nnc5sc(-c6ccc(O)cc6)nn45)nnc3s2)cc1	145	> 200	
COc1ccc2c3c(coc13)C(CCC(=O)O)CC2 (stereo unspecified)			inactive
CC(C)C1C(=O)N(c2c(F)c(F)c(F)c(F)c2F)C(=S)N1CCS(=O)c1ccccc1 (stereo unspecified)	> 200	9.33	
CC[N+](C)(CC)Cc1ccccc1[N+](=O)[O-]	> 200	126	
CC(O)C(C(=O)O)N(CC1(O)OCC(O)C(O)C1O)N=O (stereo unspecified)			inactive
CCOC(=O)C1=C(C)NC(C)=C(C(=O)OCC)C1c1cccc([N+](=O)[O-])c1			inactive
CCCCNC(=O)C1C(=O)N(CCCC)C(=O)/C1=N\N (stereo unspecified)	> 25.7	> 25.7	
CCCCC[C@@H]1CCCC2C1CC[C@@H](CCCCCI)N2C(=O)OCC(Cl)(Cl)Cl (stereo partly specified)			inactive
COc1ccc(/C=C2\N=C3Sc4c(nc[nH]c4=O)N3C2=O)cc1	> 200	> 200	
N#CC1(C#N)NC(c2ccccc2)C(C#N)(C#N)NC1c1ccccc1 (stereo unspecified)	> 200	> 200	
Nc1nc2c(c(-c3cccc(Cl)c3)n1)COC/C2=C\c1cccc(Cl)c1	> 200	> 200	

Structure (SMILES)	EC50 [µM]	IC50 [µM]	outcome
Cc1cn(C2CC(O)C(CO)(C(F)(F)F)O2)c(=O)[nH]c1=O (stereo unspecified)	> 200	> 200	
O=C(/C=C/c1ccccc1Cl)NC1C=Nc2ccc([N+](=O)[O-])cc2NC1 (stereo unspecified)	> 26.9	> 26.9	
[Cl][Sn]([c]1ccccc1)([c]1ccccc1)[c]1ccccc1			inactive
CCOC(=O)c1nc(SC)sc1NC(=O)c1ccc(Cl)cc1	> 200	195	
COc1ccc(N=C2[Se]C(=NC(=O)c3ccccc3)N(c3ccc(OC)cc3)C2=Nc2ccc(OC)cc2)cc1	> 200	102	
O=S(=O)(F)c1ccc(Cl)cc1C[P+](c1ccccc1)(c1ccccc1)c1ccccc1	> 200	87.1	
CCCC(S(=O)(=O)c1ccccc1)S(=O)(=O)c1ccccc1			inactive
CC(=O)NC(C)(C)C1CC=C(C)/C(=N\O)C1 (stereo unspecified)	> 1120	776	
CC(C1=CC=C2[C@@H]3CCC4CC(N(C)C)CC[C@]4(C)C3CC[C@]12C)N(C)C=O (stereo partly specified)	> 35.5	> 35.5	
CCCCCCC(CCl)c1sc(-c2csc(CCNC(=O)OC(C)(C)C)n2)nc1C(=O)OC (stereo unspecified)	> 200	> 200	
Cc1ccc(NC(=O)CSc2nc(C)nc3c2sc(=S)n3-c2ccccc2)cc1	> 200	138	
COc1ccc(/C=C(/C(=O)c2ccccc2)c2ccccc2)cc1	> 8.71	> 8.71	
Oc1cc(O)c2c(c1)OC(c1ccc(O)c(O)c1)C(O)C2c1c(O)cc(O)c2c1OC(c1ccc(O)c(O)c1)C(O)C2 (stereo unspecified)	> 200	102	
C=C(C)[C@H]1C2=CC(C(=O)OC)=C(C[C@H](C(=C)C)[C@@H](O)[C@@H](O)C3=C[C@H]1OC3=O)O2	> 200	93.3	
O=C(O)CC/C(=N\Nc1nsc2ccccc12)c1ccccc1	> 11.5	8.13	
O=C(CCc1ccc(O)cc1)NCCc1ccc(O)cc1	38.9	166	
COc1ccc(C2c3c(-c4ccccc4)nn(-c4ccccc4)c3Oc3ncn4nc(CC#N)nc4c32)cc1OC (stereo unspecified)	> 200	> 200	
Brc1ccccc1C=NC12CC3CC(CC(C3)C1)C2	> 22.9	> 22.9	
N#Cc1sc2nc3ccccc3n2c1N	> 200	28.8	
Clc1ccc(Cl)c(-c2nc3ccccc3[nH]2)c1	> 97.7	> 97.7	
CC(=O)C(=Cc1ccc(Cl)cc1)C(C)=O	> 427	19.5	
NC(N)=N/N=C/c1c(-c2ccc(Cl)cc2)nc2sccn12	> 200	3.39	
O=c1cn[nH]c2cc(Cl)ccc12	> 117	> 117	

Structure (SMILES)	EC50 [µM]	IC50 [µM]	outcome
Cc1ccnc2sc3ccccc3c(=O)c12	> 200	37.2	
COc1nc(=O)n(C2CC(N=[N+]=[N-])C(CO)O2)cc1C (stereo unspecified)	17.4	> 200	
C#CCOC(=O)c1ccccc1OC(C)=O	> 200	> 200	
Clc1cccc(NC2=NCCN=C(Nc3cccc(Cl)c3)SS2)c1			inactive
CC1=C(C(=O)CC(=O)C(=O)Nc2ccccc2)Sc2ccccc2N1	> 178	> 178	
CC(O)[C@@]1(c2ccccc2)CC2(CCN(C)CC2)O[C@H]1C (stereo partly specified)	> 200	> 200	
Nc1nc(=O)n(C2OC(CO)CC2F)cc1F (stereo unspecified)	55	575	
CCOC(=O)/C=C/[C@H](O[Si](CC)(CC)CC)C(C)(C)C	> 200	> 200	
O=C(ON=c1c2ccccc2ccc2ccccc12)c1cc([N+](=O)[O-])cc([N+](=O)[O-])c1	> 200	20.4	
Cc1cc(C)c(NS(=O)c2ccc(Cl)cc2)c(C)c1 (stereo unspecified)	> 33.9	> 33.9	
NCCCCNCCCN1CC1	> 200	0.148	
Cc1cn(C2OC(CO)CC2F)c(=O)[nH]c1=O (stereo unspecified)	> 646	> 646	
Clc1cc(Cl)cc(Nc2nc3ccccc3nc2-c2cccs2)c1	> 10	> 10	
CCCCNC(=O)OCCN=c1c2ccccc2ccc2ccccc12	> 200	> 200	
N#CN1CCC=C(c2cc3ccccc3[nH]2)C1	> 115	60.3	
Cn1c(=O)sc2cc(C(=S)N3CCCCC3)ccc21	> 200	107	
Clc1ccc2sc3c(c2c1)CCNC3			inactive
Cc1cc(C)c2c(c1)CC2(Cl)Cl	> 178	> 178	
COc1ccccc1N/C(=C\C(=O)C(=O)NC12CC3CC(CC(C3)C1)C2)c1ccccc1	> 200	> 200	
CCCn1ccc(=O)c(O)c1C	> 200	35.5	
CC(=O)NC1Cc2ccccc2C1=O (stereo unspecified)	> 200	> 200	
CC(=O)OC1CCC2(C)C(CCC3C4CC=C(C(C)=O)C4(C)OC(=O)CC32)C1 (stereo unspecified)			inactive
